Target: T1, SIRT1 (Homo sapiens, UniProt Q96EB6)
T1 sequence (Q96EB6 1-747): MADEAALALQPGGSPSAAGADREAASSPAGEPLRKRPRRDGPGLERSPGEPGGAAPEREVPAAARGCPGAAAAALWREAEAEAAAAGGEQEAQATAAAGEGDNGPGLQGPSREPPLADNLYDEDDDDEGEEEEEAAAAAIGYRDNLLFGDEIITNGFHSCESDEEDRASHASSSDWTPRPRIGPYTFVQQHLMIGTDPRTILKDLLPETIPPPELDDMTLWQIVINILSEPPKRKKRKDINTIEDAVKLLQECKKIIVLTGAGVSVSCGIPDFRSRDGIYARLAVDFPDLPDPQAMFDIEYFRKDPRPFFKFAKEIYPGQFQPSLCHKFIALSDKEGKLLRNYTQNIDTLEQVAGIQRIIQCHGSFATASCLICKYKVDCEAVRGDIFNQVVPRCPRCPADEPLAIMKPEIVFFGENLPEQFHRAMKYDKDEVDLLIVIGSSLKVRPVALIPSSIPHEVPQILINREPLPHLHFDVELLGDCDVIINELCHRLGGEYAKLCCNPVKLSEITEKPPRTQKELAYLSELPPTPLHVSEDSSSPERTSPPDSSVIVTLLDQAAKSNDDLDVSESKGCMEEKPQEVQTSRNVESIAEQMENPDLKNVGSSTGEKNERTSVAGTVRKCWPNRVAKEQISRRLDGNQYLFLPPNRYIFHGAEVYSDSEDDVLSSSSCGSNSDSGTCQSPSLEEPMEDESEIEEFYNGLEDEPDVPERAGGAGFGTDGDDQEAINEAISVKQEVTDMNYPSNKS
Test: Mass spectrometry based assay to identify modulators of SIRT1 activity (deacetylation of p53-based acetylated peptide)
Type: biochemical
Conditions: 10 nM SIRT1, 0.5 μM peptide substrate, 120 μM βNAD+, 25 minutes at 25° C.; for EC1.5 μM: SIRT1 activation
Text: A mass spectrometry based assay was used to identify modulators of SIRT1 activity. The mass spectrometry based assay utilizes a peptide having 20 amino acid residues as follows: Ac-EE-K(biotin)-GQSTSSHSK(Ac)NleSTEG-K(5TMR)-EE-NH2 (SEQ ID NO: 1) wherein K(Ac) is an acetylated lysine residue and Nle is a norleucine. The peptide is labeled with the fluorophore 5TMR (excitation 540 nm/emission 580 nm) at the C-terminus. The sequence of the peptide substrate is based on p53 with several modifications. In addition, the methionine residue naturally present in the sequence was replaced with the norleucine because the methionine may be susceptible to oxidation during synthesis and purification.
The mass spectrometry assay is conducted as follows: 0.5 μM peptide substrate and 120 μM βNAD^+ is incubated with 10 nM SIRT1 for 25 minutes at 25° C. in a reaction buffer (50 mM Tris-acetate pH 8, 137 mM NaCl, 2.7 mM KCl, 1 mM MgCl2, 5 mM DTT, 0.05% BSA). Test compounds may be added to the reaction as described above. […] After the 25 minute incubation with SIRT1, 10 μL of 10% formic acid is added to stop the reaction. Reactions are sealed and frozen for later mass spec analysis. Determination of the mass of the substrate peptide allows for precise determination of the degree of acetylation (i.e. starting material) as compared to deacetylated peptide (product).
A control for inhibition of sirtuin activity is conducted by adding 1 μL of 500 mM nicotinamide as a negative control at the start of the reaction (e.g., permits determination of maximum sirtuin inhibition). A control for activation of sirtuin activity is conducted using 10 nM of sirtuin protein, with 1 μL of DMSO in place of compound, to determine the amount of deacetylation of the substrate at a given timepoint within the linear range of the assay. This timepoint is the same as that used for test compounds and, within the linear range, the endpoint represents a change in velocity.
For the above assay, SIRT1 protein was expressed and purified as follows. […] The protein was expressed by induction with 1 mM IPTG as an N-terminal His-tag fusion protein at 18° C. overnight and harvested at 30,000×g. Cells were lysed with lysozyme in lysis buffer (50 mM Tris-HCl, 2 mM Tris[2-carboxyethyl]phosphine (TCEP), 10 μM ZnCl2, 200 mM NaCl) and further treated with sonication for 10 min for complete lysis. The protein was purified over a Ni-NTA column (Amersham) and fractions containing pure protein were pooled, concentrated and run over a sizing column (Sephadex S200 26/60 global). The peak containing soluble protein was collected and run on an Ion-exchange column (MonoQ). Gradient elution (200 mM-500 mM NaCl) yielded pure protein. This protein was concentrated and dialyzed against dialysis buffer (20 mM Tris-HCl, 2 mM TCEP) overnight. The protein was aliquoted and frozen at −80° C. until further use.
Sirtuin modulating compounds that activated SIRT1 were identified using the assay described above and are shown below in Tables 1 and 2. The EC1.5 values for the activating compounds are represented by A (EC1.5<1.0 μM), B (EC1.5 1-25 μM), C (EC1.5>25 μM). The percent maximum fold activation is represented by A (Fold activation>200%) or B (Fold Activation<200%).

| % Fold Act. (percent maximum fold activation) | EC1.5 μM | Structure (SMILES) |
| --- | --- | --- |
| B (Fold Activation<200%) | B (EC1.5 1-25 μM) | Cn1c(-c2cccc(C(F)(F)F)c2)nc2c(C(=O)Nc3cccc(N4CCCC4)n3)cccc2c1=O [Compound 350, 3-methyl-4-oxo-N-(6-(pyrrolidin-1-yl)pyridin-2-yl)-2-(3-(trifluoromethyl)phenyl)-3,4-dihydroquinazoline-8-carboxamide] |
| B (Fold Activation<200%) | C (EC1.5>25 μM) | Cn1cnc(-c2nc3c(NC(=O)c4cnccn4)cccc3c(=O)n2C)c1 [Compound 288] |
| B (Fold Activation<200%) | B (EC1.5 1-25 μM) | Cn1c(-c2cccc(C(F)(F)F)c2)nc2c(C(=O)Nc3nccs3)cccc2c1=O [Compound 205] |
| A (Fold activation>200%) | A (EC1.5<1.0 μM) | Cn1c(-c2cccc(OC(F)(F)F)c2)nc2c(C(=O)Nc3ccccn3)cccc2c1=O [Compound 207] |
| A (Fold activation>200%) | A (EC1.5<1.0 μM) | Cn1c(-c2cccc(OC(F)(F)F)c2)nc2c(NC(=O)c3cnccn3)cccc2c1=O [Compound 204] |
| A (Fold activation>200%) | A (EC1.5<1.0 μM) | Cn1c(-c2cccc(C(F)(F)F)c2)nc2c(C(=O)Nc3cccc(CN4CCOCC4)n3)cccc2c1=O [Compound 344] |
| A (Fold activation>200%) | A (EC1.5<1.0 μM) | O=C(Nc1nccs1)c1cccc2c(=O)cc(-c3cccc(OC(F)(F)F)c3)[nH]c12 [Compound 429] |
| A (Fold activation>200%) | A (EC1.5<1.0 μM) | O=C(Nc1cnccn1)c1cccc2c(=O)cc(-c3cccc(C(F)(F)F)c3)[nH]c12 [Compound 403] |
| A (Fold activation>200%) | A (EC1.5<1.0 μM) | O=C(Nc1nccs1)c1cccc2c(=O)cc(-c3ccccc3OC(F)F)[nH]c12 [Compound 436] |
| A (Fold activation>200%) | A (EC1.5<1.0 μM) | Cn1c(-c2cccc(C(F)(F)F)c2)nc2c(C(=O)Nc3cccc(CN4CCNCC4)n3)cccc2c1=O [Compound 348] |
| A (Fold activation>200%) | A (EC1.5<1.0 μM) | Cn1nccc1C(=O)Nc1cccc2c(=O)n(C)c(-c3cccc(C(F)(F)F)c3)nc12 [Compound 248] |
| A (Fold activation>200%) | B (EC1.5 1-25 μM) | Cn1cnc(NC(=O)c2cccc3c(=O)n(C)c(-c4cccc(C(F)(F)F)c4)nc23)n1 [Compound 305] |
| B (Fold Activation<200%) | C (EC1.5>25 μM) | Cn1c(-c2ccc(S(C)(=O)=O)cc2)nc2c(C(=O)Nc3ccccn3)cccc2c1=O [Compound 215] |
| A (Fold activation>200%) | B (EC1.5 1-25 μM) | Cn1c(-c2ccccc2C(F)(F)F)nc2c(C(=O)Nc3ccccn3)cccc2c1=O [Compound 212, 3-methyl-4-oxo-N-(pyridin-2-yl)-2-(2-(trifluoromethyl)phenyl)-3,4-dihydroquinazoline-8-carboxamide] |

The remaining lines, values behind:

| Structure (SMILES) | % Fold Act. (percent maximum fold activation) | EC1.5 μM |
| --- | --- | --- |
| Cn1c(-c2cccc(C(F)(F)F)c2)nc2c(C(=O)Nc3ccnc(N4CCCC4)c3)cccc2c1=O [Compound 349] | A (Fold activation>200%) | A (EC1.5<1.0 μM) |
| Cn1c(-c2cccc(C(F)(F)F)c2)nc2c(C(=O)Nc3ncc(CN4CCOCC4)s3)cccc2c1=O [Compound 308] | A (Fold activation>200%) | B (EC1.5 1-25 μM) |
| Cn1c(-c2ccncn2)nc2c(C(=O)Nc3ccccn3)cccc2c1=O [Compound 257] | B (Fold Activation<200%) | C (EC1.5>25 μM) |
| Cn1c(-c2ccc(C#N)cc2)nc2c(C(=O)Nc3ccccn3)cccc2c1=O [Compound 254] | B (Fold Activation<200%) | C (EC1.5>25 μM) |
| Cn1c(-c2cscn2)nc2c(C(=O)Nc3ccccn3)cccc2c1=O [Compound 225] | B (Fold Activation<200%) | C (EC1.5>25 μM) |
| Cn1c(-c2cccc(C(F)(F)F)c2)nc2c(NS(=O)(=O)c3ccccn3)cccc2c1=O [Compound 362] | B (Fold Activation<200%) | C (EC1.5>25 μM) |
| Cn1c(-c2ccccc2S(C)(=O)=O)nc2c(C(=O)Nc3ccccn3)cccc2c1=O [Compound 221] | A (Fold activation>200%) | B (EC1.5 1-25 μM) |
| Cn1c(-c2ccccc2C(F)F)nc2c(NC(=O)c3cnccn3)cccc2c1=O [Compound 314] | A (Fold activation>200%) | A (EC1.5<1.0 μM) |
| Cn1c(-c2cccc(C(F)(F)F)c2)nc2c(NC(=O)c3cscn3)cccc2c1=O [Compound 201] | B (Fold Activation<200%) | A (EC1.5<1.0 μM) |
| Cn1c(-c2cnccn2)nc2c(NC(=O)c3cnccn3)cccc2c1=O [Compound 281] | B (Fold Activation<200%) | C (EC1.5>25 μM) |
| Cn1ccnc1-c1nc2c(NC(=O)c3cnccn3)cccc2c(=O)n1C [Compound 289] | B (Fold Activation<200%) | C (EC1.5>25 μM) |
| O=C(Nc1cccnc1)c1cccc2c(=O)cc(-c3ccccc3OC(F)F)[nH]c12 [Compound 440] | A (Fold activation>200%) | B (EC1.5 1-25 μM) |
| Cn1c(-c2ccccc2OC(F)(F)F)nc2c(NC(=O)c3cnccn3)cccc2c1=O [Compound 274] | A (Fold activation>200%) | A (EC1.5<1.0 μM) |
| O=C(Nc1ccccn1)c1cccc2c(=O)[nH]c(-c3ccccc3C(F)(F)F)nc12 [Compound 321] | A (Fold activation>200%) | B (EC1.5 1-25 μM) |
| O=C(Nc1nccs1)c1cccc2c(=O)cc(-c3ccccc3OC(F)(F)F)[nH]c12 [Compound 430] | A (Fold activation>200%) | A (EC1.5<1.0 μM) |
| Cn1c(-c2ccccc2OC(F)(F)F)nc2c(C(=O)Nc3ccccn3)cccc2c1=O [Compound 213] | A (Fold activation>200%) | B (EC1.5 1-25 μM) |
| Cn1c(-c2cccc(C(F)(F)F)c2)nc2c(C(=O)Nc3ccnc(CN4CCOCC4)n3)cccc2c1=O [Compound 307] | A (Fold activation>200%) | B (EC1.5 1-25 μM) |
